ChEMBL document CHEMBL5303573, “Mapping human microbiome drug metabolism by gut bacteria and their genes” (Nature, 2019)

What was measured:
[1] = The drug is tested on Bifidobacterium breve strain: DSM20213 for biotransformation. The drug concentrations were measured before and after a 12-h incubation by liquid-chromatography-coupled mass spectrometry (LC–MS); settings: 2 µM
[2] = The drug is tested on Bacteroides fragilis strain: HMW610 for biotransformation. The drug concentrations were measured before and after a 12-h incubation by liquid-chromatography-coupled mass spectrometry (LC–MS); settings: 2 µM
[3] = The drug is tested on Bacteroides fragilis strain: HMW615 for biotransformation. The drug concentrations were measured before and after a 12-h incubation by liquid-chromatography-coupled mass spectrometry (LC–MS); settings: 2 µM
[4] = The drug is tested on Bacteroides sp. WH2 strain: WH2 for biotransformation. The drug concentrations were measured before and after a 12-h incubation by liquid-chromatography-coupled mass spectrometry (LC–MS); settings: bacteroides sp. wh2, 12 h, 2 µM
[5] = The drug is tested on Bacteroides xylanisolvens strain: DSM18836 for biotransformation. The drug concentrations were measured before and after a 12-h incubation by liquid-chromatography-coupled mass spectrometry (LC–MS); settings: 2 µM
[6] = The drug is tested on Anaerotruncus colihominis strain: DSM17241 for biotransformation. The drug concentrations were measured before and after a 12-h incubation by liquid-chromatography-coupled mass spectrometry (LC–MS); settings: 2 µM
[7] = The drug is tested on Blautia luti strain: DSM14534 for biotransformation. The drug concentrations were measured before and after a 12-h incubation by liquid-chromatography-coupled mass spectrometry (LC–MS); assay type: ADME; parameters: dose 2 uM, timepoint 0 vs 12 hours; settings: 2 µM
[8] = The drug is tested on Clostridium ramosum strain: DSM1402 for biotransformation. The drug concentrations were measured before and after a 12-h incubation by liquid-chromatography-coupled mass spectrometry (LC–MS); settings: thomasclavelia ramosa, 2 µM
[9] = The drug is tested on Dorea formicigenerans strain: ATCC27755 for biotransformation. The drug concentrations were measured before and after a 12-h incubation by liquid-chromatography-coupled mass spectrometry (LC–MS); settings: 2 µM
[10] = The drug is tested on Eubacterium ventriosum strain: ATCC27560 for biotransformation. The drug concentrations were measured before and after a 12-h incubation by liquid-chromatography-coupled mass spectrometry (LC–MS); assay type: ADME; parameters: dose 2 uM, timepoint 0 vs 12 hours; settings: 2 µM
[11] = The drug is tested on Ruminococcus gnavus strain: ATCC29149 for biotransformation. The drug concentrations were measured before and after a 12-h incubation by liquid-chromatography-coupled mass spectrometry (LC–MS); settings: mediterraneibacter gnavus, 2 µM
[12] = The drug is tested on Ruminococcus lactaris strain: ATCC29176 for biotransformation. The drug concentrations were measured before and after a 12-h incubation by liquid-chromatography-coupled mass spectrometry (LC–MS); settings: 2 µM
[13] = The drug is tested on Ruminococcus torques strain: ATCC27756 for biotransformation. The drug concentrations were measured before and after a 12-h incubation by liquid-chromatography-coupled mass spectrometry (LC–MS); assay type: ADME; parameters: dose 2 uM, timepoint 0 vs 12 hours; settings: 2 µM
[14] = The drug is tested on Edwardsiella tarda strain: ATCC23685 for biotransformation. The drug concentrations were measured before and after a 12-h incubation by liquid-chromatography-coupled mass spectrometry (LC–MS); settings: 2 µM
[15] = The drug is tested on Enterobacter cancerogenus strain: ATCC35316 for biotransformation. The drug concentrations were measured before and after a 12-h incubation by liquid-chromatography-coupled mass spectrometry (LC–MS); settings: 2 µM
[16] = bacteroides intestinalis, 12 h, 2 µM
Description: The drug is tested on Bacteroides intestinalis strain: DSM17393 for biotransformation. The drug concentrations were measured before and after a 12-h incubation by liquid-chromatography-coupled mass spectrometry (LC–MS)

[17] = bacteroides thetaiotaomicron, 12 h, 2 µM
Description: The drug is tested on Bacteroides thetaiotaomicron strain: 3731 for biotransformation. The drug concentrations were measured before and after a 12-h incubation by liquid-chromatography-coupled mass spectrometry (LC–MS)

[18] = limosilactobacillus reuteri cf48-3a, 12 h, 2 µM
Description: The drug is tested on Lactobacillus reuteri CF48-3A strain: BEI HM-102 for biotransformation. The drug concentrations were measured before and after a 12-h incubation by liquid-chromatography-coupled mass spectrometry (LC–MS)

[19] = roseburia intestinalis, 12 h, 2 µM
Description: The drug is tested on Roseburia intestinalis strain: L1-82 for biotransformation. The drug concentrations were measured before and after a 12-h incubation by liquid-chromatography-coupled mass spectrometry (LC–MS)

In the case of `Nc1nnc(-c2cccc(Cl)c2Cl)c(N)n1` [LAMOTRIGINE], the “Bacterial Biotransformation” value [1] is reported as “Compound NOT metabolized”, the “Bacterial Biotransformation” value [2] is reported as “Compound NOT metabolized” and the “Bacterial Biotransformation” value [3] is reported as “Compound NOT metabolized”. The “Bacterial Biotransformation” value [4] was “Compound NOT metabolized”, the “Bacterial Biotransformation” value [5] was “Compound NOT metabolized” and the “Bacterial Biotransformation” value [6] was “Compound NOT metabolized”. For the same molecule, the “Bacterial Biotransformation” value [7] was “Compound NOT metabolized”, the “Bacterial Biotransformation” value [8] was “Compound NOT metabolized” and the “Bacterial Biotransformation” value [9] was “Compound NOT metabolized”. For the same molecule, the “Bacterial Biotransformation” value [10] was “Compound NOT metabolized”, the “Bacterial Biotransformation” value [11] was “Compound NOT metabolized” and the “Bacterial Biotransformation” value [12] was “Compound NOT metabolized”. The “Bacterial Biotransformation” value [13] was “Compound NOT metabolized”, the “Bacterial Biotransformation” value [14] was “Compound NOT metabolized” and the “Bacterial Biotransformation” value [15] was “Compound NOT metabolized”. For the same molecule, the “Bacterial Biotransformation” value [16] was “Compound NOT metabolized”, the “Bacterial Biotransformation” value [17] was “Compound NOT metabolized” and the “Bacterial Biotransformation” value [18] was “Compound NOT metabolized”. For the same molecule, the “Bacterial Biotransformation” value [19] was “Compound NOT metabolized”.

For `CC(=O)O[C@]1(C(C)=O)CC[C@H]2[C@@H]3C=C(C)C4=CC(=O)CC[C@]4(C)[C@H]3CC[C@@]21C` [MEGESTROL ACETATE], the “Bacterial Biotransformation” value [1] was “Compound NOT metabolized”, the “Bacterial Biotransformation” value [2] was “Compound metabolized” and the “Bacterial Biotransformation” value [3] was “Compound metabolized”. The “Bacterial Biotransformation” value [5] was “Compound metabolized”, the “Bacterial Biotransformation” value [6] was “Compound NOT metabolized” and the “Bacterial Biotransformation” value [8] was “Compound NOT metabolized”. The “Bacterial Biotransformation” value [9] was “Compound NOT metabolized”, the “Bacterial Biotransformation” value [10] was “Compound NOT metabolized” and the “Bacterial Biotransformation” value [11] was “Compound NOT metabolized”. For the same molecule, the “Bacterial Biotransformation” value [12] was “Compound NOT metabolized”, the “Bacterial Biotransformation” value [13] was “Compound NOT metabolized” and the “Bacterial Biotransformation” value [14] was “Compound NOT metabolized”. The “Bacterial Biotransformation” value [15] was “Compound NOT metabolized”, the “Bacterial Biotransformation” value [16] was “Compound metabolized” and the “Bacterial Biotransformation” value [17] was “Compound metabolized”. The “Bacterial Biotransformation” value [18] was “Compound NOT metabolized” and the “Bacterial Biotransformation” value [19] was “Compound NOT metabolized”.

For `Fc1ccc([C@@H]2CCNC[C@H]2COc2ccc3c(c2)OCO3)cc1` [PAROXETINE], the “Bacterial Biotransformation” value [1] was “Compound NOT metabolized”, the “Bacterial Biotransformation” value [2] was “Compound NOT metabolized” and the “Bacterial Biotransformation” value [3] was “Compound NOT metabolized”. The “Bacterial Biotransformation” value [4] was “Compound NOT metabolized”, the “Bacterial Biotransformation” value [5] was “Compound NOT metabolized” and the “Bacterial Biotransformation” value [6] was “Compound metabolized”. For the same molecule, the “Bacterial Biotransformation” value [7] was “Compound NOT metabolized”, the “Bacterial Biotransformation” value [8] was “Compound NOT metabolized” and the “Bacterial Biotransformation” value [9] was “Compound NOT metabolized”. The “Bacterial Biotransformation” value [10] was “Compound NOT metabolized”, the “Bacterial Biotransformation” value [11] was “Compound NOT metabolized” and the “Bacterial Biotransformation” value [12] was “Compound NOT metabolized”. The “Bacterial Biotransformation” value [13] was “Compound NOT metabolized”, the “Bacterial Biotransformation” value [14] was “Compound NOT metabolized” and the “Bacterial Biotransformation” value [15] was “Compound metabolized”. The “Bacterial Biotransformation” value [16] was “Compound NOT metabolized”, the “Bacterial Biotransformation” value [17] was “Compound metabolized” and the “Bacterial Biotransformation” value [18] was “Compound NOT metabolized”. For the same molecule, the “Bacterial Biotransformation” value [19] was “Compound NOT metabolized”.
